The results in this text go back to ChEMBL document CHEMBL6083234, “Discovery of novel 1,4-dicarbonylthiosemicarbazides as DNA gyrase inhibitors for the treatment of MRSA infection” (Eur J Med Chem, 2024).

Values after ≈ are worked out from the molar mass of the structure shown. Active and inactive are the calls of the source.

Data set [1] concerns Staphylococcus aureus. The experiment in a line: Antibacterial activity against methicillin-resistant Staphylococcus aureus clinical isolate 16-1 infected in kunming mouse model assessed as survival rate at 10 mg/kg, iv pre-infected with bacteria for 10 mins followed by compound administration and measured for 7 days (reference value: 0 %). The format is functional. The note with it: 168 h, time 7 day.

Data set [2] concerns Staphylococcus aureus. The experiment in a line: Antibacterial activity against methicillin-resistant Staphylococcus aureus clinical isolate 16-1 infected in kunming mouse model assessed as survival rate at 3.5 mg/kg, iv pre-infected with bacteria for 10 mins followed by compound administration and measured for 7 days (reference value: 0 %). In kind it is functional. The note with it: 168 h, time 7 day.

For data set [3], the system named is Staphylococcus aureus. The experiment in a line: Antibacterial activity against methicillin-resistant Staphylococcus aureus (15 strains) assessed as inhibition of bacterial growth incubated for 18 to 24 hrs by broth microdilution method. In kind it is functional. The following applies: time 18-24 hrs. (Broth dilution looks for growth in wells or tubes with falling amounts of substance.)

The subject of data set [4] is Staphylococcus aureus. The data set is described as follows: Antibacterial activity against Staphylococcus aureus ATCC 29213 assessed as inhibition of bacterial growth incubated for 18 to 24 hrs by broth microdilution method. In kind it is functional. The following applies: time 18-24 hrs.
Data set [5] has as its system Staphylococcus aureus. The data set is described as follows: Antibacterial activity against methicillin-resistant Staphylococcus aureus clinical isolate 16-1 infected in kunming mouse model assessed as survival rate at 7 mg/kg, iv pre-infected with bacteria for 10 mins followed by compound administration and measured for 7 days (reference value: 0 %). In kind it is functional. The following applies: 168 h, time 7 day.

The test system of data set [6] is Staphylococcus aureus. The experiment in a line: Antibacterial activity against methicillin-resistant Staphylococcus aureus clinical isolate 16-1 infected in kunming mouse model assessed as survival rate at 5 mg/kg, iv pre-infected with bacteria for 10 mins followed by compound administration and measured for 7 days (reference value: 0 %). The format is functional. The following applies: 168 h, time 7 day.

Data set [7] can be described thus: Stability in mouse plasma assessed as half-life at 1 uM measured upto 120 mins by LC-MS/MS analysis. The format is ADME, cell-free.
Data set [8] relates to Staphylococcus aureus. The data set is described as follows: Bacteriostatic activity against Staphylococcus aureus ATCC 29213 assessed as inhibition of bacterial growth at 1 times of MIC measured after 24 hrs by time-kill assay. In kind it is functional, organism-based.
Data set [9] in a line: Selectivity index, ratio of CC50 for cytotoxicity against human HepG2 cells to MIC for antibacterial activity against Staphylococcus aureus ATCC 29213. The format is toxicity, cell-based. The note with it: read-out: Selectivity Index.
Data set [10] is described as follows: Cytotoxicity against HUVEC cells assessed as reduction in cell viability incubated for 48 hrs by CCK8 assay. The format is toxicity, cell-based. The following applies: human. In general terms: Tetrazolium assays rely on reduction of a dye to a coloured formazan, in cell work by metabolically active cells.
Data set [11] in a line: Selectivity index, ratio of CC50 for cytotoxicity against HUVEC cells to MIC for antibacterial activity against Staphylococcus aureus ATCC 29213. The format is toxicity, cell-based. The following applies: human, read-out: Selectivity Index.
The test system of data set [12] is Staphylococcus epidermidis. The experiment in a line: Antibacterial activity against methicillin-sensitive Staphylococcus epidermidis (8 strains) assessed as inhibition of bacterial growth incubated for 18 to 24 hrs by broth microdilution method. In kind it is functional. The following applies: time 18-24 hrs.
Data set [13] relates to Staphylococcus aureus. The data set is described as follows: Bacteriostatic activity against Staphylococcus aureus ATCC 29213 assessed as log reduction in bacterial colony counts at 4 times of MIC measured after 24 hrs by time-kill assay. In kind it is functional.
The target of data set [14] is T1, DNA gyrase (Staphylococcus aureus, UniProt P0A0K8+P20831). The data set is described as follows: Inhibition of Staphylococcus aureus DNA gyrase ATP hydrolysis activity using pBR322 DNA as substrate incubated for 30 mins in presence of ATP by ADP-Glo reagent based assay. The format is protein-complex assay. For orientation: ADP-Glo first removes unused ATP, then detects ADP through luciferase.

Data set [15] relates to Staphylococcus aureus. The experiment in a line: Bacteriostatic activity against Staphylococcus aureus ATCC 29213 assessed as inhibition of bacterial growth at 4 times of MIC measured after 24 hrs by time-kill assay. In kind it is functional, organism-based.
For data set [16], the system named is Staphylococcus aureus. The experiment in a line: Bactericidal activity against Staphylococcus aureus ATCC 29213 at 16 times of MIC measured after 24 hrs by time-kill assay. The format is functional, organism-based.
The subject of data set [17] is Staphylococcus aureus. The data set is described as follows: Bactericidal activity against Staphylococcus aureus ATCC 29213 assessed as log reduction in bacterial colony counts at 16 times of MIC measured after 24 hrs by time-kill assay. In kind it is functional.
The subject of data set [18] is Staphylococcus epidermidis. The data set is described as follows: Antibacterial activity against methicillin-resistant Staphylococcus epidermidis (11 strains) assessed as inhibition of bacterial growth incubated for 18 to 24 hrs by broth microdilution method. In kind it is functional. The following applies: time 18-24 hrs.
In data set [19] the test system is Staphylococcus aureus. The experiment in a line: Antibacterial activity against methicillin-resistant Staphylococcus aureus clinical isolate 16-1 infected in kunming mouse model assessed as survival rate at 20 mg/kg, iv pre-infected with bacteria for 10 mins followed by compound administration and measured for 7 days (reference value: 0 %). The following applies: 168 h, time 7 day. The format is functional.

Data set [20] concerns the target DNA gyrase (Staphylococcus aureus) (UniProt P0A0K8+P20831). The experiment in a line: Inhibition of Staphylococcus aureus DNA gyrase supercoiling using […] pBR322 DNA as substrate assessed as reduction in supercoiled DNA incubated for 30 mins in presence of ATP by agarose gel electrophoresis. The following applies: dose 0.01-100 µM. The format is protein-complex assay.

Data set [21] has as its system Staphylococcus aureus. The experiment in a line: Antibacterial activity against methicillin-resistant Staphylococcus aureus clinical isolate 16-1 infected in kunming mouse model assessed as survival rate at 14 mg/kg, iv pre-infected with bacteria for 10 mins followed by compound administration and measured for 7 days (reference value: 0 %). In kind it is functional. The following applies: 168 h, time 7 day.

Data set [22] concerns Staphylococcus aureus. The experiment in a line: Antibacterial activity against methicillin-sensitive Staphylococcus aureus (8 strains) assessed as inhibition of bacterial growth incubated for 18 to 24 hrs by broth microdilution method. The following applies: time 18-24 hrs. The format is functional.
Data set [23] concerns Staphylococcus aureus. The experiment in a line: Antibacterial activity against vancomycin intermediate and methicillin-resistant Staphylococcus aureus (2 strains) assessed as inhibition of bacterial growth incubated for 18 to 24 hrs by broth microdilution method. The following applies: time 18-24 hrs. In kind it is functional.
The subject of another data set is Enterococcus faecalis. The experiment in a line: Antibacterial activity against Enterococcus faecalis (8 strains) assessed as inhibition of bacterial growth incubated for 18 to 24 hrs by broth microdilution method. The following applies: time 18-24 hrs. In kind it is functional.
Data set [24] in a line: Cytotoxicity against human HepG2 cells assessed as reduction in cell viability incubated for 48 hrs by CCK8 assay. The format is toxicity, cell-based.
A further data set deals with Enterococcus faecium. The data set is described as follows: Antibacterial activity against Enterococcus faecium (8 strains) assessed as inhibition of bacterial growth incubated for 18 to 24 hrs by broth microdilution method. In kind it is functional. The following applies: time 18-24 hrs.
Data set [25] can be described thus: Metabolic stability in mouse liver microsomes assessed as half-life at 1 uM measured upto 60 mins in presence of NADPH by LC-MS/MS analysis. In kind it is ADME, Microsome.
Data set [26] relates to Staphylococcus aureus. The data set is described as follows: Antibacterial activity against Staphylococcus aureus ATCC 25923 incubated for 24 hrs by CLSI protocol based broth microdilution method. In kind it is functional.
Data set [27] addresses T1, DNA gyrase. The data set is described as follows: Inhibition of Staphylococcus aureus DNA gyrase supercoiling using supercoiled pBR322 DNA as substrate incubated for 60 mins by ethidium bromide staining based analysis. In kind it is protein-complex assay.
Data set [28] has as its system Staphylococcus aureus. The data set is described as follows: Antibacterial activity against methicillin-resistant Staphylococcus aureus incubated for 24 hrs by CLSI protocol based broth microdilution method. The format is functional.
Data set [29] deals with T2, Topoisomerase IV (Staphylococcus aureus, UniProt P0C1S7+P0C1U9). The data set is described as follows: Inhibition of Staphylococcus aureus DNA topoisomerase 4 decatenation activity incubated for 1 hrs by ethidium bromide staining based analysis. The format is protein-complex assay.
Data set [30] deals with T2, Topoisomerase IV. The experiment in a line: Inhibition of Staphylococcus aureus DNA topoisomerase 4 using linear pBR322 as substrate preincubated for 10 mins followed by ATP addition and measured after 1 hrs ATP hydrolysis assay. The format is protein-complex assay.
Data set [31] deals with Staphylococcus aureus. The data set is described as follows: Antibacterial activity against Staphylococcus aureus clinical isolates incubated for 18 hrs by Mueller-Hinton broth based assay. The format is functional.
Data set [32] concerns the target T1, DNA gyrase. The experiment in a line: Inhibition of Staphylococcus aureus DNA gyrase using supercoiled pBR322 as substrate preincubated for 1 hrs followed by proteinase K addition and measured after 30 mins by agarose gel electrophoresis. In kind it is protein-complex assay.
Data set [33] concerns the target T3, Ribonuclease P protein component (Staphylococcus aureus, UniProt P0A0H5).
T3 sequence (P0A0H5 whole entry): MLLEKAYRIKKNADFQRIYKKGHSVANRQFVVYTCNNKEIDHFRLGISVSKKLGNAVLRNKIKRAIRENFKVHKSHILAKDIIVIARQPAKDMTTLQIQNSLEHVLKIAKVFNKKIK
The data set is described as follows: Inhibition of Staphylococcus aureus RnpA-mediated RNA degradation incubated for 20 mins by fluorescence-based high through-put assay.

The test system of data set [34] is Staphylococcus aureus. The experiment in a line: Antibacterial activity against methicillin-resistant Staphylococcus aureus incubated for 18 hrs by CLSI protocol based broth microdilution method. The format is functional.

T1 sequence (P0A0K8 whole entry): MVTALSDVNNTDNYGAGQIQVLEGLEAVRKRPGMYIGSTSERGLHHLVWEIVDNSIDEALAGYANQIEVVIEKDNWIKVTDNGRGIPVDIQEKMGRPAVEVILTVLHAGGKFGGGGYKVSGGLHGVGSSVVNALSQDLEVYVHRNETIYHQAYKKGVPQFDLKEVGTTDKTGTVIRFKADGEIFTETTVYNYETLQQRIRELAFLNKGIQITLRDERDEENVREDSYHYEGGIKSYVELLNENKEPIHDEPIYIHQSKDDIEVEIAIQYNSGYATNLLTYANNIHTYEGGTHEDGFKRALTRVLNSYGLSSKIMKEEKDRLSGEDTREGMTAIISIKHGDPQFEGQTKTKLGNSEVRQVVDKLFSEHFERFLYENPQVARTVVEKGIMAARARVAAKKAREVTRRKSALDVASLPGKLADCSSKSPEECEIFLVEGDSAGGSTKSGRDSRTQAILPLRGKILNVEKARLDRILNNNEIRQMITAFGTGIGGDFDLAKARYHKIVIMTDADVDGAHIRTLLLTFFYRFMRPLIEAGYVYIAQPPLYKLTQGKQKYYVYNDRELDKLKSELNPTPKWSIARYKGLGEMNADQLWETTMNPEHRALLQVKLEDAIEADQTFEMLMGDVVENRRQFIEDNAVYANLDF
T1 sequence (P20831 whole entry): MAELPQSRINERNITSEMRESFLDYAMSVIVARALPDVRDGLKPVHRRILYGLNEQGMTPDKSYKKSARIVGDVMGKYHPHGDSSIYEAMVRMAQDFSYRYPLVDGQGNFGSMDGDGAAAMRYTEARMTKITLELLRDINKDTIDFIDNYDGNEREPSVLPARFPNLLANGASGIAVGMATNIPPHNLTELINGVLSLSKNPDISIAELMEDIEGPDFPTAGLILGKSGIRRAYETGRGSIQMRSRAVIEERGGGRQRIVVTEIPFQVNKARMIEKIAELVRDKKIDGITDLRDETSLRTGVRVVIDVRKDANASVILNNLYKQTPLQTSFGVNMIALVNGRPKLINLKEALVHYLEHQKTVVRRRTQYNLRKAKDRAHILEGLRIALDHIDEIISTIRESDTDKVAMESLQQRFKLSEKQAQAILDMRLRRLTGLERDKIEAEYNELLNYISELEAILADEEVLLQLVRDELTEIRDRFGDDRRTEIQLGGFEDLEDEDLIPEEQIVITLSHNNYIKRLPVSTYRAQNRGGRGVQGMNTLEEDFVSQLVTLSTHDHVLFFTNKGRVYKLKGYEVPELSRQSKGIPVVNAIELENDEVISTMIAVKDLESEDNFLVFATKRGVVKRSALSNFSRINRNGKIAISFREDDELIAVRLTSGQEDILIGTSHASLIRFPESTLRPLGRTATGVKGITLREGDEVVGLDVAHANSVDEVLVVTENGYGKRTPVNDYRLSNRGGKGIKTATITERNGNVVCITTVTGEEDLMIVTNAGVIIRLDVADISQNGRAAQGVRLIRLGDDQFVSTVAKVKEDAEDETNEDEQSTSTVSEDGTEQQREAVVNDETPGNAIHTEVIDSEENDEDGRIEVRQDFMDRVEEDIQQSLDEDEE
T2 sequence (P0C1U9 whole entry): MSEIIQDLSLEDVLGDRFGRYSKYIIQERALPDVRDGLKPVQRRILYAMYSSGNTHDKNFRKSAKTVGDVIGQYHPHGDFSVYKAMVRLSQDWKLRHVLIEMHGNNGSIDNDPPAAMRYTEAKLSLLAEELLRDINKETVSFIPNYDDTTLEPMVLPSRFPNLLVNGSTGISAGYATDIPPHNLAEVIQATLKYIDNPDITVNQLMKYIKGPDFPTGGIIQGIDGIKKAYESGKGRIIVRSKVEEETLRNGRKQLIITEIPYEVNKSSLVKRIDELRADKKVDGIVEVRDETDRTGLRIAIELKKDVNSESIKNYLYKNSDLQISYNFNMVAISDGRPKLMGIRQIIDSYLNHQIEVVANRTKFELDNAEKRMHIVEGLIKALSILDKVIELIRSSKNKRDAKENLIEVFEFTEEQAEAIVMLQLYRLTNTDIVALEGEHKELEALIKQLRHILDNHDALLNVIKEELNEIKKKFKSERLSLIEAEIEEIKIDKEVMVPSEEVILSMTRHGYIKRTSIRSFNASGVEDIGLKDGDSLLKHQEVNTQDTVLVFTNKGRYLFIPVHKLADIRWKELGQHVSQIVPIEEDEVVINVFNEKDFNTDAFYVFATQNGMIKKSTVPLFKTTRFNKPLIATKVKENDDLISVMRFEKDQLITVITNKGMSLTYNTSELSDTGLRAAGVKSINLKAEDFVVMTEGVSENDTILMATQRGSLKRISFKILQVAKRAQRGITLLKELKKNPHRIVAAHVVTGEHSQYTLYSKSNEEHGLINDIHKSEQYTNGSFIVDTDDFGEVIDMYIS
T2 sequence (P0C1S7 whole entry): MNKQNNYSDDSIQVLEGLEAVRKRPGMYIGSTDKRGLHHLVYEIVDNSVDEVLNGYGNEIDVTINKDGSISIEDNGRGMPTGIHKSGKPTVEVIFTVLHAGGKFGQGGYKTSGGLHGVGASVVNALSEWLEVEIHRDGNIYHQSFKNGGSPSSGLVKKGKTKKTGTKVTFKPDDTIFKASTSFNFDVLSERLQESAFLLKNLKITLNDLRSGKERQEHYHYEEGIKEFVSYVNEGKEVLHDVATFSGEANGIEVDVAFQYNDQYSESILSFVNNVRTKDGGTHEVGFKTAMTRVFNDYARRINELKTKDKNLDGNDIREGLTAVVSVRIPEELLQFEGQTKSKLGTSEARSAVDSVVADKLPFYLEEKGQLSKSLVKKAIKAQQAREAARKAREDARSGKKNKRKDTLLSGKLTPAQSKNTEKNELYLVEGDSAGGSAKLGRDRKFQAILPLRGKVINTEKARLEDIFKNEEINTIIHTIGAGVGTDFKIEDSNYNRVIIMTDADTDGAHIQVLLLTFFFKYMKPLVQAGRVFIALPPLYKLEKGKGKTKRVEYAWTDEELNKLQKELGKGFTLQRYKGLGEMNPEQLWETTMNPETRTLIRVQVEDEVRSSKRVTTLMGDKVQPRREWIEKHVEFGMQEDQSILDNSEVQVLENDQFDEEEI
Sequence of DNA gyrase (Staphylococcus aureus) (P0A0K8 2-644 limits assumed): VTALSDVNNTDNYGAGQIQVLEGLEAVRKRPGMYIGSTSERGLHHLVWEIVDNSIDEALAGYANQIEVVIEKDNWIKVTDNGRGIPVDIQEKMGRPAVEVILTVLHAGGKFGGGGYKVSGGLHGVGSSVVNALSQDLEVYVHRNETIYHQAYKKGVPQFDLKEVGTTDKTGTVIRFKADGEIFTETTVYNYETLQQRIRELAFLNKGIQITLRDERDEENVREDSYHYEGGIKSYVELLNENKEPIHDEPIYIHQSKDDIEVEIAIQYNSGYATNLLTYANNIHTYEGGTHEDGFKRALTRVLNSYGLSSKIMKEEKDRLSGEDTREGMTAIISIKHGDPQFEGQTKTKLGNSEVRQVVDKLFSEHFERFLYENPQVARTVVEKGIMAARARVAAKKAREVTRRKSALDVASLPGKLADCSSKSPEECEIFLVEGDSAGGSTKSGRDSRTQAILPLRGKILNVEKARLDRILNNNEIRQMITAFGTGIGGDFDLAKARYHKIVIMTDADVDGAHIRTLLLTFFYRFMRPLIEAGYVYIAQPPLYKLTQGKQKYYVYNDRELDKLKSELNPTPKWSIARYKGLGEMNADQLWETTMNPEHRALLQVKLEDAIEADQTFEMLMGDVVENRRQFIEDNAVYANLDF
Sequence of DNA gyrase (Staphylococcus aureus) (P20831 whole entry partner): as the sequence (P20831 whole entry) above

As for `CN[C@H](CC(C)C)C(=O)N[C@H]1C(=O)N[C@@H](CC(N)=O)C(=O)N[C@H]2C(=O)N[C@H]3C(=O)N[C@H](C(=O)N[C@H](C(=O)O)c4cc(O)cc(O)c4-c4cc3ccc4O)[C@H](O)c3ccc(c(Cl)c3)Oc3cc2cc(c3O[C@@H]2O[C@H](CO)[C@@H](O)[C@H](O)[C@H]2O[C@H]2C[C@](C)(N)[C@H](O)[C@H](C)O2)Oc2ccc(cc2Cl)[C@H]1O` [VANCOMYCIN], the survival at 10 mg/kg in the data set on Staphylococcus aureus [1] stood at 60%. Besides, in the data set on Staphylococcus aureus [2], the survival at 3.5 mg/kg was found to be 20%. The MIC is 0.25 µg/mL (≈ 0.173 µM) with Staphylococcus aureus [3] and 1.56 µg/mL in the data set with Staphylococcus aureus [4]. Moreover, the survival at 7 mg/kg in the data set on Staphylococcus aureus [5] was determined as 50%. Moreover, the survival at 5 mg/kg in the data set with Staphylococcus aureus [6] stood at 50%.
As for `CCCCCOc1ccc(C(=O)NNC(=S)NC(C)=O)cc1`, the figures for the half-life at 1 µM in [7] and in data set [25] were over 120 min and 28.3 min, respectively. In addition, the survival at 10 mg/kg in the data set on Staphylococcus aureus [1] is 20%. The result in the data set with Staphylococcus aureus [8], in the data set on Staphylococcus aureus [15] and with Staphylococcus aureus [16] was Active. Further, the selectivity ratio in data set [9] is 0.98; in data set [11], 2.68. In addition, the figures for the cytotoxic concentration (CC50) at 48 h in data set [10] and in data set [24] were 6.46 µM and 2.37 µM, respectively. Also, the minimal inhibitory concentration (MIC) was 1 µg/mL (≈ 3.09 µM) in [12]; 2 µg/mL (≈ 6.18 µM) with Staphylococcus aureus [3]; 2.41 µM in the data set on Staphylococcus aureus [4]; 0.5 µg/mL (≈ 1.55 µM) in data set [18]; 1 µg/mL (≈ 3.09 µM) in the data set on Staphylococcus aureus [22]; 2 µg/mL (≈ 6.18 µM) with Staphylococcus aureus [23]. Also, the MIC worked out at 4 µg/mL (≈ 12.4 µM) in the data set on Enterococcus faecalis and 2 µg/mL (≈ 6.18 µM) with Enterococcus faecium. Besides, the survival at 7 mg/kg with Staphylococcus aureus [5] stood at 10%. Further, the “log(activity)” value in the data set on Staphylococcus aureus [13] is on record as 2.51; in the data set with Staphylococcus aureus [17] it was 6.41. Also, on DNA gyrase [14], the 50% inhibitory concentration (IC50) came to 1.81 µM. For the same compound, the survival at 20 mg/kg in the data set on Staphylococcus aureus [19] was 50%. In addition, the inhibition entry in data set [20] was “Dose-dependent-effect”. The survival at 14 mg/kg in the data set on Staphylococcus aureus [21] came out at 20%.
Take `O=C(NC(=S)NNC(=O)c1cccc(Cl)c1Cl)c1ccc([N+](=O)[O-])cc1`: the minimal inhibitory concentration (MIC) is 1.95 µg/mL (≈ 4.72 µM) in the data set with Staphylococcus aureus [26] and over 62.5 µg/mL against Staphylococcus aureus [28]. Also, the half-maximal inhibitory concentration (IC50) at DNA gyrase [27] and at Topoisomerase IV [29] was over 100 µM each time.
As to `O=C(NC(=S)NNC(=O)c1cc2ccccc2[nH]1)c1ccccc1`, the figures for the IC50 at Topoisomerase IV [30] and on DNA gyrase [32] were over 10 µM and over 50 µM, respectively. The same compound had a minimal inhibitory concentration (MIC) against Staphylococcus aureus [31] of 8 µg/mL (≈ 23.6 µM).
Regarding `Cc1ccc(C(=O)NC(=S)NNC(=O)c2ccc(Cl)cc2)cc1C`, the IC50 in data set [33] is over 50 µM. The compound further yielded an MIC against Staphylococcus aureus [34] of 16 µg/mL (≈ 44.2 µM).

A word on the MIC: it is the smallest concentration in the dilution series that meets the test's criterion for growth inhibition. In general, half-life refers to the time in which the quantity being followed falls by half. For orientation: CC50 means the concentration that lowers cell viability or growth by half. A word on the IC50: it is the concentration that gives 50% inhibition.
